This is an account of results in US8765808B2, “Treatment or prevention of cancer and precancerous disorders” (CHS Pharma, Inc., priority 2005, dated 2014).

One series deals with SCC skin cancer cells. Put plainly: Intracellular ROS by indicator dye fluorescence, SCC skin cancer cells.
The test system of series [1] is lung carcinoma cell line designated A549. Put plainly: MTS cell viability after pretreatment and oxidative stress, lung cancer cells.
Experimental: Cell viability was determined by the [sequence] 96®-Aqueous One Cell Proliferation Assay (Promega) according to the manufacturer's instructions. The assay utilizes a novel tetrazolium compound (3-(4,5-dimethylthiazol-2-yl)-5-(3-carboxymethoxyphenyl)-2-(4-sulfophenyl)-2H-tetrazolium; MTS) and an electron-coupling reagent (phenazine ethosulfate; PES). Metabolically active cells convert the MTS to a water-soluble formazan by the action of cellular dehydrogenases. The amount of formazan produced is measured by absorbance at 490 nm using a colorimetric microtiter plate reader (BIORAD; Model 2550). Absorbance is directly proportional to the number of viable cells.
Experiments using similar methods were performed with a lung carcinoma cell line designated A549. […] Cells were grown in Ham's F12K medium supplemented with final concentrations of 2 mM L-glutamine, 1.6 g/L sodium bicarbonate and 10% fetal bovine serum. Cultures were maintained between 6×10^3-6×10^4 cells/cm^2 in standard tissue culture flasks. The protocol for pretreatment of cells with 500 μM sulindac followed by a two hour exposure to various concentrations of TBHP was the same as that described for the RKO colon cancer cells.
Following a 24 hr pretreatment with 500 μM sulindac, the cells were washed once to remove the excess sulindac before exposure to TBHP for 2 hr.
In series [2] the test system is Normal HEK skin cells (human neonatal epidermal keratinocytes). The series can be described thus: Intracellular ROS by indicator dye fluorescence, normal HEK skin cells. Particulars: Table 4, alone or after Sul 500 uM.
Experimental: Experimental conditions: Normal HEK skin cells plated onto 6-well plates at cell density of 60-70% confluence. Sulindac (0.5 mM)×24 hours (cell density remained about the same) followed by TBHP×2 hours followed by ROS indicator dye (5 μM)×1 hour (Table 1).
Human neonatal epidermal keratinocytes were plated into 6-well plates at a cell density of 60-70% confluence. The cultures were pretreated with sulindac (500 uM) for 34 hours followed by the addition of different concentrations of TBHP for 2 hours. During this period of time, the cell density in the 6-well plates remained the same (there was no increase in cell proliferation). This was followed by the addition of the ROS indicator dye.
Another series has as its system Normal lung cells. The series can be described thus: Conversion of sulindac epimers to sulindac sulfide in whole cells, normal lung. Type of series: in vitro ADME. Conditions: 200 μM epimer, 4 hours; for Amount Formed (sulindac sulfide): serum-free medium. Here is the method: (§1) After the incubations, the cells were pelleted by low speed centrifugation and lysed by the addition of 200 μl of 100% acetonitrile, followed by vigorous vortexing. The lysate was centrifuged for 15 minutes at 14,000×g to pellet cell debris. 50 μl of the supernatant was transferred to an HPLC autosampler microvial. The separation of metabolites is carried out on a 4.6×75 mm C18 reverse-phase column. […] The metabolites are detected at a wavelength of 330 nm.
(§2) The cells are incubated with 200 μM R- or S-Sulindac epimer for 4 hours in a defined, serum-free medium (EX-CELL^SM). After incubation, the cells are collected, rinsed and lysed with acetonitrile. The cytosolic contents are separated on a C-18 column.

Series [3] has as its system neonatal rat cardiac myocytes. Particulars: for Amount Formed (sulindac sulfide): Normal Cardiomyocyte, 200 μM epimer, 4 hours, serum-free medium. Here is the method: FIG. 23 is a graph showing the metabolic conversion of the R & S epimers of sulindac to the sulfide form in cardiac myocytes. The amount of sulindac sulfide formed by 10^6 cells incubated with 400 μM sulindac, R, S or RS mixture is measured as a function of time of incubation. […] The absorbance was measured at 330 nm.
To inhibit fibroblast growth, 0.1 mM bromodeoxyuridine was included in the medium for the first 3-5 days after plating. Cell cultures are incubated with sulindac or its individual epimers for specified times.
as §1, §2

Another series deals with Cancer Lung cells. Put plainly: Conversion of sulindac epimers to sulindac sulfide in whole cells, lung cancer. Type of series: in vitro ADME. Conditions: 200 μM epimer, 4 hours, serum-free medium. Here is the method:
as §1, §2

A further series deals with HeLa cancer cells. Conditions: 200 μM epimer, 4 hours, serum-free medium. How it is done:
as §1, §2

Series [4] has as its system Cancer Skin (skin SCC) cells. Particulars: 200 μM epimer, 4 hours, serum-free medium. Here is the method:
as §1, §2

The subject of series [5] is SCC-25 squamous cell skin cancer cell line. The series can be described thus: MTS cell viability after pretreatment and oxidative stress, SCC skin cancer cells. Particulars: for cancer killing effect of epimers, SCC cells: 500 μM 24 hours, then TBHP 2 hours (FIG. 24); for sensitizing skin cancer cells to killing by TBHP: other NSAIDs at comparable active concentrations, compared to sulindac; for enhancing the killing of skin cancer cells (SCC-25) when exposed to TBHP: 24 hr pretreatment with 500 μM sulindac sulfone, 500 μM SMO or 50 μM sulindac sulfide, TBHP 2 hr (FIG. 14). Type of series: cell-based, human. How it is done:
SCC-25 is a human squamous cell carcinoma cell line developed by J G Rheinwald [Rheinwald, 1981]. […] The cells were maintained in minimum essential medium (Eagle) supplemented with 2 mM L-glutamine, Earle's BSS containing 1.5 g/L sodium bicarbonate, 0.1 mM non-essential amino acids, 1.0 mM sodium pyruvate and 10% fetal bovine serum.
The experimental approach was to pretreat SCC cells with sulindac for 24 hr prior to exposure to TBHP for 2 hr. Sulindac (Sigma; S-8139) was freshly prepared as a 1M stock solution in 1M Tris.Cl, pH 8.0. SCC cells were suspended in culture medium containing 10% fetal bovine serum at a cell density of 6×10^5 cells/ml. Cell suspensions containing 500 μM sulindac or no sulindac (Control) were plated in 96 well microtiter plates with a total of 6×10^4 cells per well. The plates were incubated for 24 hr at 37° C. in a 5% CO2 incubator. The culture medium was then removed and the cells washed once with fresh culture medium without serum. After removal of the wash solution, fresh culture medium without serum that contained the indicated final concentration of TBHP was added to the cells for 2 hrs. Serum was omitted from the medium during the two-hour exposure to TBHP since TBHP may be rapidly depleted in the presence of serum.

The subject of series [6] is RKO colon cancer cell line. The series can be described thus: MTS cell viability after pretreatment and oxidative stress, RKO colon cancer cells. Type of series: cell-based, human. Particulars: other NSAIDs at comparable active concentrations, compared to sulindac. How it is done:
RKO is a human colon carcinoma cell line developed by Michael Brattain [Brattain, 1984]. […] The cells were maintained in minimum essential medium (Eagle) supplemented with 2 mM L-glutamine, Earle's BSS containing 1.5 g/L sodium bicarbonate, 0.1 mM non-essential amino acids, 1.0 mM sodium pyruvate and 10% fetal bovine serum.
Experiments were performed with the RKO colon cancer cells that were pretreated with 500 μM sulindac using TBHP.

Series [7] deals with precancerous growths and/or BCC's. Put plainly: Topical sulindac gel followed by hydrogen peroxide solution in patients. Particulars: applied alone to the skin condition.
The conditions of series [8]: cited from earlier work.
Series [9] relates to WM-266-4 Melanoma skin cell line. The series can be described thus: MTS cell viability after pretreatment and oxidative stress, melanoma cells. Type of series: cell-based, human. Particulars: sulindac sulfide pretreatment.
[10] abbreviates: Table 2, Sul 0.5 mM 24 hours and/or TBHP 100 μM 2 hours.
The mark [11] stands for this setting: Table 3, Sul 500 μM 24 hours and/or TBHP 100 μM 2 hours.

Read-outs that look alike come from different tables or passages of the source.

Regarding `CC(C)(C)OO` [TBHP, tert-butyl hydroperoxide], the “% Cells with ROS Uptake by Fluorescence” value in the series on SCC skin cancer cells (setting [10]) was found to be 11%. For the same molecule, the “fold increase compared to untreated control” value in the series with SCC skin cancer cells (setting [10]) is listed as 7 fold; in the series on SCC skin cancer cells (setting [11]) it was 7 fold; in [2] (TBHP 200 uM 2 hours), 0 fold; in [2] (TBHP 400 uM 2 hours) it was 2 fold; in series [2] (TBHP 800 uM 2 hours), 20 fold. Besides, the “% Cells containing ROS” value was 11% with SCC skin cancer cells (setting [11]), 2% in series [2] (TBHP 200 uM 2 hours), 5% in series [2] (TBHP 400 uM 2 hours) and 60% in series [2] (TBHP 800 uM 2 hours). In the series with SCC skin cancer cells (sulindac 500 uM or TBHP 100 uM alone), the “ROS levels in SCC skin cancer cells, agent alone” value was “enhanced the ROS levels”. For the same molecule, the “viable cells without sulindac pretreatment” value in [1] (1.5-2.0 mM TBHP, 2 hr, untreated (no sulindac) cells) is “approximately 50%”.
Regarding `CC1=C(CC(=O)O)c2cc(F)ccc2/C1=C\c1ccc([S@+](C)[O-])cc1` [S-epimer, S-sulindac sulfoxide], the “Amount Formed (sulindac sulfide)” value in the series on Normal lung cells stood at 35 picomoles; in series [3] it was 120.9 picomoles; in the series on Cancer Lung cells, 17.7 picomoles; with HeLa cancer cells, 7.9 picomoles; in series [4], 57 picomoles. Also, the “cancer killing effect of epimers, SCC cells” value in [5] is “comparable in potency to the sulindac racemic mixture”. Moreover, in [1], the “cancer killing effect of epimers, lung cancer cells” value is reported as “comparable in potency to the sulindac racemic mixture”.
Turning to `O=C(O)Cc1ccccc1Nc1c(Cl)cccc1Cl` [diclofenac sodium], in series [6], the “sensitizing colon cancer cells to killing by TBHP” value (“sensitizing colon cancer cells” below) was “ineffective”. Further, in series [5], the “sensitizing skin cancer cells to killing by TBHP” value (“sensitizing skin cancer cells” below) is on record as “ineffective”.
In the case of sulindac methionine sulfoxide [SMO], the “enhancing the killing of skin cancer cells (SCC-25) when exposed to TBHP” value (shortened to “enhancing the killing”) in [5] is on record as “not effective”.
For the molecule `CC(=O)Oc1ccccc1C(=O)O` [Acetylsalicylic acid], in series [6], the “sensitizing colon cancer cells” value is “ineffective”. Further, the “sensitizing skin cancer cells” value in [5] is given as “ineffective”.
As for `CC1=C(CC(=O)O)c2cc(F)ccc2/C1=C\c1ccc([S+](C)[O-])cc1` (stereo not shown) [R-epimer, R-sulindac sulfoxide], the “R/S (%)” value was 6% with Normal lung cells and below 10% in the series with Normal lung cells (listed as R epimer). The “Amount Formed (sulindac sulfide)” value in the series with Normal lung cells is reported as 2.2 picomoles; in series [3], 11.6 picomoles; in the series with Cancer Lung cells, 7.5 picomoles; with HeLa cancer cells, 9.3 picomoles; in series [4], 35.3 picomoles. Besides, the “conversion to the sulfide compared to the S-epimer” value in series [3] (normal cardiac myocytes, 400 μM, time course (FIG. 23)) is on record as “greater than 10 fold less conversion”. The “cancer killing effect of epimers, SCC cells” value in [5] is recorded as “comparable in potency to the sulindac racemic mixture”. For the same molecule, in [1], the “cancer killing effect of epimers, lung cancer cells” value is on record as “comparable in potency to the sulindac racemic mixture”.
On to `OO` [hydrogen peroxide], for which, in series [7], the “effect on the precancerous or cancerous growth when applied alone” value is reported as “no effect”. Further, the skin irritation entry is recorded as “nonirritating” in series [8] (3-8% hydrogen peroxide, 24 hours under occlusive dressing, intact and abraded skin, rabbits); “slight” in series [8] (10% hydrogen peroxide, 4 hour exposure); “mild” in series [8] (35% hydrogen peroxide). Further, the “classification as skin irritant by the European Union criteria” value in series [8] (hydrogen peroxide solutions of 35% or less, rabbits) is “would not be classified as skin irritants”.
Turning to `CSc1ccc(/C=C2/C(C)=C(CC(=O)O)c3cc(F)ccc32)cc1` [sulindac sulfide], the “enhancing the killing” value in series [5] is listed as “not effective”. Moreover, the “reducing the cell viability of lung cancer cells exposed to TBHP” value in series [1] (250 μM sulindac sulfide 24 hr, TBHP 2 hr (FIG. 15)) is recorded as “had activity in reducing the cell viability”. The “reducing the cell viability of melanoma cells exposed to TBHP” value in [9] is on record as “had activity in reducing the cell viability”.
Take `CC(C)Cc1ccc(C(C)C(=O)O)cc1` (stereo not shown) [ibuprofen]: the “sensitizing colon cancer cells” value in series [6] is reported as “ineffective”. In addition, the “sensitizing skin cancer cells” value in series [5] is recorded as “ineffective”.
As to `CC1=C(CC(=O)O)c2cc(F)ccc2/C1=C\c1ccc(S(C)(=O)=O)cc1` [sulindac sulfone], the “enhancing the killing” value in series [5] is listed as “effective in enhancing the killing”. For the same molecule, in series [1] (FIG. 15, 500 μM sulindac, 250 μM sulindac sulfone), the “killing effect in all cancer cell studies” value is given as “most potent killing effect”.
